Results on 13 compounds are retold here after patent US20110190280A1, “Thiazole And Oxazole Kinase Inhibitors” (priority 2007, published 2011).

The target of experiment [1] is B-Raf (Homo sapiens, UniProt P15056). Put plainly: B-Raf Accelerated MEK ATPase assay (BRAMA). The format is biochemical. The note with it: BRAMA enzyme assay; class by pIC50; read-out: B-Raf Activity. As for the experimental part: Compounds of the present invention were tested for B-Raf […] inhibitory activity in a B-Raf Accelerated MEK ATPase assay (BRAMA). The BRAMA assay is a high sensitivity assay which measures an intrinsic MEK-mediated ATP hydrolysis uncoupled from downstream ERK phosphorylation by coupling the formation of ADP to NADH oxidation through the enzymes pyruvate kinase and lactate dehydrogenase. When ADP production is initiated by addition of catalytic amounts of an activated RAF enzyme and non-phosphorylated MEK, one observes robust ADP production concomitant with RAF-mediated phosphorylation of MEK. Specific details of the assay are disclosed in: C. Rominger, M. Schaber, E. May. Assay for B-Raf Activity Based on Intrinsic MEK ATPase Activity.

Experiment [2] relates to SK-MEL-28 tumor cells. Put plainly: Cell growth inhibition assay (CellTiter-Glo), SK-MEL-28.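 Also: luminescent total ATP as a proxy for cell number, threefold serial dilutions at 0.2% DMSO, percent growth inhibition versus DMSO vehicle control wells.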 The note with it: Homo sapiens, SK-MEL-28, 72 h, read-out: Activity in SK-MEL-28 Tumor Cells. On the technique in general: In ATP-based viability assays light output follows the ATP content of the culture.
Experiment [3] deals with Colo205 tumor cells. Nature of the experiment: Cell growth inhibition assay (CellTiter-Glo), Colo205.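 Also: growth measured via total ATP luminescence (CellTiter-Glo) as a proxy for cell number, inhibition expressed against DMSO-treated control wells, 3-day exposure at 0.2% final DMSO.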 The note with it: Homo sapiens, COLO 205, 72 h, read-out: Activity in Colo205 Tumor Cells.
Experimental: Cell Growth Inhibition Assays Human colon tumor cells (Colo205) were cultured in RPMI (Mediatech 50-020-PB) containing 10% FBS and 1% penicillin-streptomycin. […] Human melanoma cancer cells (A375-F11S) were cultured in RPMI (Mediatech 50-020-PB) containing 10% FBS, 1% sodium pyruvate, and 1% penicillin-streptomycin. Human colon cancer cells (HT-29) were cultured in high glucose DMEM (Mediatech 50-013-PB) containing 10% FBS and 1% penicillin-streptomycin. Human melanoma cancer cells (SK-MEL-3) were cultured in McCoy's 5A (50-025-PB) containing 15% FBS, and 1% penicillin-streptomycin. All cell lines were maintained at 37° C. in a humidified 5% CO2, 95% air incubator.
The next day, compounds were diluted as follows: For 96-well assays, 13.5 μl of compound in DMSO were diluted using nine (9) serial 1:3 dilutions of 4.5 μl in 9 μl of DMSO. Medium (270 μl/well of RPMI with 10% FBS and 1% penicillin-streptomycin) was added to the plates. Aliquots (7 μl) were added to cells in the final assay giving a final DMSO concentration of 0.2%. For 384-well assays, 15 μl of compound in DMSO were diluted using nine (9) serial 1:3 dilutions of 5 μl in 10 μl of DMSO, followed by a further dilution of 5 μl of compound with 95 μl of medium, of which 2 μl are added to cells in the final assay giving a final DMSO concentration of 0.2%. Cells were incubated at 37° C., 5% CO2 for 3 days.
Total ATP was measured (as a surrogate estimate of cell number) using CellTiter-Glo® (Promega G7571) reagent. Briefly, plates were removed from the incubator and allowed to equilibrate to room temperature for 30 minutes. CellTiter-Glo® (25 μl or 55 μl for 384-well or 96-well assays, respectively) reagent was added to each well and plates were shaken on an orbital plate shaker for 2 minutes. Plates were incubated without shaking for a further 30 minutes and read on an LJL Analyst GT reader in luminometer mode with an integration time of 0.5 seconds per well. Percent inhibition of cell growth was calculated relative to DMSO vehicle-treated control wells.

Each structure is given as a SMILES string.

B-Raf, sequence (P15056 whole entry): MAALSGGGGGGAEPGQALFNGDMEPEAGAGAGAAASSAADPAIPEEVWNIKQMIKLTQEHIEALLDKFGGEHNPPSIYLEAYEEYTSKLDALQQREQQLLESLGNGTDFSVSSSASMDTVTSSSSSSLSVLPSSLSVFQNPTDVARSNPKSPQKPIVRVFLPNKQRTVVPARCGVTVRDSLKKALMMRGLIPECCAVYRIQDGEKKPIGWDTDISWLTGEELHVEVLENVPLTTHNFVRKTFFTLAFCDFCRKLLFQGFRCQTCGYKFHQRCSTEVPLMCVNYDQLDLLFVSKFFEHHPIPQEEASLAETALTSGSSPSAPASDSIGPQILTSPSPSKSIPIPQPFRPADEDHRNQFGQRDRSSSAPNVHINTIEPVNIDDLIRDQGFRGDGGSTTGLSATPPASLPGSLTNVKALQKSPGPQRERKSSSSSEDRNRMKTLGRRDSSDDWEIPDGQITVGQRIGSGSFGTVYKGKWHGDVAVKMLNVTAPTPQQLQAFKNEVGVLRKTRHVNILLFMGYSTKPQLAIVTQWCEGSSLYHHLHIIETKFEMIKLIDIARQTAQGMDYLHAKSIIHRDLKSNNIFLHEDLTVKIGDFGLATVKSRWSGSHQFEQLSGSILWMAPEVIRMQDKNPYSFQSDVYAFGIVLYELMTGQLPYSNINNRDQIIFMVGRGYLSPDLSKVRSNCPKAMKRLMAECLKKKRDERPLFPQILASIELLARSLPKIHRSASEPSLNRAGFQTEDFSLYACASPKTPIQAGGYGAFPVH

Take `COc1cc(OC)cc(-c2nc(N(C)C)sc2-c2ccnc(Nc3ccc(OC4CCN(CCS(C)(=O)=O)CC4)c(F)c3)n2)c1` [Example 24, 4-[4-[3,5-bis(methyloxy)phenyl]-2-(dimethylamino)-1,3-thiazol-5-yl]-N-[3-fluoro-4-({1-[2-(methylsulfonyl)ethyl]-4-piperidinyl}oxy)phenyl]-2-pyrimidinamine]: the IC50 in experiment [1] was under 100 nM; in experiment [2] it was 500 to 5000 nM; in experiment [3], under 500 nM.

On to `CCNc1nc(-c2cccc(OC)c2F)c(-c2ccnc(Nc3ccc(OC4CCN(CCS(C)(=O)=O)CC4)c(F)c3)n2)s1` [Example 48, 4-{2-(Ethylamino)-4-[2-fluoro-3-(methyloxy)phenyl]-1,3-thiazol-5-yl}-N-[3-fluoro-4-({1-[2-(methylsulfonyl)ethyl]-4-piperidinyl}oxy)phenyl]-2-pyrimidinamine], for which the IC50 in experiment [1] was under 100 nM; in experiment [2], under 500 nM; in experiment [3], under 500 nM.

With `CCNc1nc(-c2cc(O)ccn2)c(-c2ccnc(Nc3ccc(OCCN4CCCC4)c(Cl)c3)n2)s1` [Example 97], the results for the IC50 in experiment [1], in experiment [2] and in experiment [3] were 100 to 1000 nM, over 5000 nM and over 5000 nM, respectively.

For `CCNc1nc(-c2ccnc(O)c2)c(-c2ccnc(Nc3ccc(NCCN4CCCC4)c(Cl)c3)n2)s1` [Example 110], the IC50 is under 100 nM in experiment [1], 500 to 5000 nM in experiment [2] and 500 to 5000 nM in experiment [3].

As to `CCNc1nc(-c2ccnc(OC)c2)c(-c2ccnc(Nc3ccc(N4CCN(C)CC4)c(F)c3)n2)s1` [Example 111], the IC50 in experiment [1] was under 100 nM; in experiment [2], over 5000 nM; in experiment [3], 500 to 5000 nM.

`CCNc1nc(-c2cccc(OC)c2)c(-c2ccnc(Nc3ccc(CCN4CCN(S(C)(=O)=O)CC4)nc3)n2)s1` [Example 40, 4-{2-(Ethylamino)-4-[3-(methyloxy)phenyl]-1,3-thiazol-5-yl}-N-(6-{2-[4-(methylsulfonyl)-1-piperazinyl]ethyl}-3-pyridinyl)-2-pyrimidinamine]: the IC50 was under 100 nM in experiment [1], 500 to 5000 nM in experiment [2] and under 500 nM in experiment [3].

Consider `CCNc1nc(-c2cc(C)cc(OC)c2)c(-c2ccnc(Nc3ccc(N4CCN5CCCCC5C4)c(F)c3)n2)s1` (stereo not shown) [Example 114], for which the IC50 was under 100 nM in experiment [1], 500 to 5000 nM in experiment [2] and 500 to 5000 nM in experiment [3].

Consider `COc1cc(OC)cc(-c2nc(C)oc2-c2ccnc(Nc3ccc(N4CCN(C)CC4)c(F)c3)n2)c1` [Example 84], for which the IC50 is under 100 nM in experiment [1], 500 to 5000 nM in experiment [2] and 500 to 5000 nM in experiment [3].

For `CCNc1nc(-c2cc(C)cc(OC)c2)c(-c2ccnc(Nc3ccc(N4CCN(C(C)=O)CC4)nc3)n2)o1` [Example 100], the IC50 was under 100 nM in experiment [1], under 500 nM in experiment [2] and under 500 nM in experiment [3].

Regarding `CCNc1nc(-c2cc(OC)cc(OC)c2)c(-c2ccnc(Nc3ccc4c(c3)N(C(C)=O)CC4)n2)o1` [Example 122], the results for the IC50 in experiment [1], in experiment [2] and in experiment [3] were under 100 nM, 500 to 5000 nM and 500 to 5000 nM, respectively.

On to `CCNc1nc(-c2cc(C)cc(OC)c2)c(-c2ccnc(Nc3ccc(N4CCOCC4)c(C(=O)O)c3)n2)s1` [Example 26, 5-[(4-{2-(Ethylamino)-4-[3-methyl-5-(methyloxy)phenyl]-1,3-thiazol-5-yl}-2-pyrimidinyl)amino]-2-(4-morpholinyl)benzoic acid], for which the IC50 in experiment [1] is under 100 nM; in experiment [2] it was under 500 nM; in experiment [3] it was under 500 nM.

For the compound `COc1cc(OC)cc(-c2nc(C)oc2-c2ccnc(Nc3ccc(OC4CCN(CCS(C)(=O)=O)CC4)c(F)c3)n2)c1` [Example 83], the IC50 in experiment [1] was 100 to 1000 nM; in experiment [2] it was over 5000 nM; in experiment [3], 500 to 5000 nM.

As for `CCNc1nc(-c2cc(C)cc(OCC)c2)c(-c2ccnc(Nc3ccc(N4CCN(C)CC4)c(F)c3)n2)s1` [Example 39, 4-{2-(Ethylamino)-4-[3-(ethyloxy)-5-methylphenyl]-1,3-thiazol-5-yl}-N-[3-fluoro-4-(4-methyl-1-piperazinyl)phenyl]-2-pyrimidinamine], in experiment [1], the IC50 is under 100 nM.
